Experiments:
Assay type in all cases: in vivo
[1] = test system: Cabbage Looper (Trichoplusia ni); assay: Bioassay on Cabbage Looper (CL), 128-well diet tray assay; settings: Cabbage Looper, Table ABC, read-out: CL rating
Procedure, shortened: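 Mortality after five to seven days at 25° C (14:10 photoperiod), averaged over eight wells per compound. Diet in each well carried 50 μg/cm^2 of dried test molecule and received one to five second-instar larvae.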

[2] = test system: Beet Armyworm (Spodoptera exigua); assay: Bioassay on Beet Armyworm (BAW), 128-well diet tray assay; settings: Beet Armyworm, Table ABC, read-out: BAW rating
Procedure, shortened: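 Percent mortality, averaged over eight wells, was scored after five to seven days at 25° C under 14:10 light-dark. Each well's diet carried 50 μg/cm^2 of test molecule applied in acetone-water (90:10) and dried before one to five second-instar larvae were added.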

[3] = test system: Yellow Fever Mosquito (Aedes aegypti); assay: Bioassay on Yellow Fever Mosquito (YFM) larvae, 96-well plate; settings: Table ABC
Procedure: Example C: Bioassays on Yellow Fever Mosquito (Aedes Aegypti, AEDSAE) (“YFM”)
Certain molecules disclosed in this document were tested against YFM using procedures described in the following paragraph. In the reporting of the results, the “GPA & YFM Rating Table” was used (See Table Section).
Master plates containing 400 μg of a molecule dissolved in 100 μL of dimethyl sulfoxide (DMSO) (equivalent to a 4000 ppm solution) are used. A master plate of assembled molecules contains 15 μL per well. To this plate, 135 μL of a 90:10 water:acetone mixture is added to each well. A robot (Biomek® NXP Laboratory Automation Workstation) is programmed to dispense 15 μL aspirations from the master plate into an empty 96-well shallow plate (“daughter” plate). There are 6 reps (“daughter” plates) created per master. The created daughter plates are then immediately infested with YFM larvae.
The day before plates are to be treated, mosquito eggs are placed in Millipore water containing liver powder to begin hatching (4 g. into 400 mL). After the daughter plates are created using the robot, they are infested with 220 μL of the liver powder/larval mosquito mixture (about 1 day-old larvae). After plates are infested with mosquito larvae, a non-evaporative lid is used to cover the plate to reduce drying. Plates are held at room temperature for 3 days prior to grading. After 3 days, each well is observed and scored based on mortality. The results are indicated in the table entitled “Table ABC: Biological Results” (See Table Section).

Row | SMILES | pest or weed control at 50 µg/cm2 [1] [%] | pest or weed control at 50 µg/cm2 [2] [%] | YFM rating [3]
1 | CN(CC(=O)NCC(F)(F)F)C(=O)c1ccc(/C(F)=C/C(c2cc(Cl)c(Cl)c(Cl)c2)C(F)(F)F)cc1C(F)(F)F (stereo not drawn) [F68, (Z)—N-Methyl-N-(2-oxo-2-((2,2,2-trifluoroethyl)amino)ethyl)-4-(1,4,4,4-tetrafluoro-3-(3,4,5-trichlorophenyl)but-1-en-1-yl)-2-(trifluoromethyl)benzamide] | 50 to 100 | 50 to 100 | A (80-100)
2 | O=C(NC1(C(=O)NCC(F)(F)F)CC1)c1ccc(/C(F)=C/C(c2ccc(F)c(Cl)c2)C(F)(F)F)cc1C(F)(F)F (stereo not drawn) [F131, (Z)-4-(3-(3-Chloro-4-fluorophenyl)-1,4,4,4-tetrafluorobut-1-en-1-yl)-N-(1-((2,2,2-trifluoroethyl)carbamoyl)cyclopropyl)-2-(trifluoromethyl)benzamide] | 50 to 100 | 50 to 100 | A (80-100)
3 | C=Cc1c(Cl)cc(C(/C=C(\F)c2ccc(C(=O)NCC(=O)NCC(F)(F)F)c(C(F)(F)F)c2)C(F)(F)F)cc1Cl (stereo not drawn) [F61, (Z)-4-(3-(3,5-Dichloro-4-vinylphenyl)-1,4,4,4-tetrafluorobut-1-en-1-yl)-N-(2-oxo-2-((2,2,2-trifluoroethyl)amino)ethyl)-2-(trifluoromethyl)benzamide] | 50 to 100 | 50 to 100 | A (80-100)
4 | Cc1cc(C(/C=C(\F)c2ccc(C(=O)NC3(C(=O)NCC(F)(F)F)CC3)c(C(F)(F)F)c2)C(F)(F)F)cc(C)c1Cl (stereo not drawn) [F70, (Z)-4-(3-(4-Chloro-3,5-dimethylphenyl)-1,4,4,4-tetrafluorobut-1-en-1-yl)-N-(1-((2,2,2-trifluoroethyl)carbamoyl)cyclopropyl)-2-(trifluoromethyl)benzamide] | 50 to 100 | 50 to 100 | A (80-100)
5 | O=C(CNC(=O)c1ccc(/C(F)=C/C(c2ccc(C(F)(F)F)c(Br)c2)C(F)(F)F)cc1C(F)(F)F)NCC(F)(F)F (stereo not drawn) [F209, (Z)-4-(3-(3-Bromo-4-(trifluoromethyl)phenyl)-1,4,4,4-tetrafluorobut-1-en-1-yl)-N-(2-oxo-2-((2,2,2-trifluoroethyl)amino)ethyl)-2-(trifluoromethyl)benzamide] | 50 to 100 | 50 to 100 | A (80-100)
6 | C[C@@H](NC(=O)c1ccc(/C(F)=C/C(c2cc(Cl)c(Cl)c(Cl)c2)C(F)(F)F)cc1C(F)(F)F)C(=O)N(C)C (stereo partly drawn) [F172, N—((R)-1-(Dimethylamino)-1-oxopropan-2-yl)-4-((Z)-1,4,4,4-tetrafluoro-3-(3,4,5-trichlorophenyl)but-1-en-1-yl)-2-(trifluoromethyl)benzamide] | 50 to 100 | 50 to 100 | B (More than 0-Less than 80)
7 | O=C(NC1(C(=O)NCC(F)(F)F)CC1)c1ccc(/C(F)=C/C(c2ccc(Br)c(Br)c2)C(F)(F)F)cc1C(F)(F)F (stereo not drawn) [F80, (Z)-4-(3-(3,4-Dibromophenyl)-1,4,4,4-tetrafluorobut-1-en-1-yl)-N-(1-((2,2,2-trifluoroethyl)carbamoyl)cyclopropyl)-2-(trifluoromethyl)benzamide] | 50 to 100 | 50 to 100 | A (80-100)
8 | CN(CC(F)(F)F)C(=O)CNC(=O)c1ccc(/C(F)=C/C(c2cc(Br)cc(Br)c2)C(F)(F)F)cc1C(F)(F)F (stereo not drawn) [F84, (Z)-4-(3-(3,5-Dibromophenyl)-1,4,4,4-tetrafluorobut-1-en-1-yl)-N-(2-(methyl(2,2,2-trifluoroethyl)amino)-2-oxoethyl)-2-(trifluoromethyl)benzamide] | 50 to 100 | 50 to 100 | A (80-100)
9 | Cc1cc(C(/C=C(\F)c2ccc(C(=O)NC3(C(=O)N(C)CC(F)(F)F)CC3)c(C(F)(F)F)c2)C(F)(F)F)cc(C)c1Cl (stereo not drawn) [F119, (Z)-4-(3-(4-Chloro-3,5-dimethylphenyl)-1,4,4,4-tetrafluorobut-1-en-1-yl)-N-(1-(methyl(2,2,2-trifluoroethyl)carbamoyl)cyclopropyl)-2-(trifluoromethyl)benzamide] | 50 to 100 | 50 to 100 | B (More than 0-Less than 80)
10 | C[C@@H](NC(=O)c1ccc(/C(F)=C/C(c2ccc(Br)c(Br)c2)C(F)(F)F)cc1C(F)(F)F)C(=O)NCC(F)(F)F (stereo partly drawn) [F79, 4-((Z)-3-(3,4-Dibromophenyl)-1,4,4,4-tetrafluorobut-1-en-1-yl)-N—((R)-1-oxo-1-((2,2,2-trifluoroethyl)amino)propan-2-yl)-2-(trifluoromethyl)benzamide] | 50 to 100 | 50 to 100 | A (80-100)
11 | C=Cc1c(Cl)cc(C(/C=C(\F)c2ccc(C(=O)NCC(=O)N(C)CC(F)(F)F)c(C(F)(F)F)c2)C(F)(F)F)cc1Cl (stereo not drawn) [F85, (Z)-4-(3-(3,5-Dichloro-4-vinylphenyl)-1,4,4,4-tetrafluorobut-1-en-1-yl)-N-(2-(methyl(2,2,2-trifluoroethyl)amino)-2-oxoethyl)-2-(trifluoromethyl)benzamide] | 50 to 100 | 50 to 100 | A (80-100)
12 | C[C@@H](NC(=O)c1ccc(/C(F)=C/C(c2ccc(Br)c(Cl)c2)C(F)(F)F)cc1C(F)(F)F)C(=O)NCC(F)(F)F (stereo partly drawn) [PF25] | 50 to 100 | 50 to 100 | B (More than 0-Less than 80)
13 | C[C@@H](NC(=O)c1ccc(/C(F)=C/C(c2ccc(C(F)(F)F)c(F)c2)C(F)(F)F)cc1C(F)(F)F)C(=O)NCC(F)(F)F (stereo partly drawn) [F210] | 50 to 100 | 50 to 100 | B (More than 0-Less than 80)
14 | CN(CC(F)(F)F)C(=O)CNC(=O)c1ccc(/C(F)=C/C(c2ccc(Br)c(Br)c2)C(F)(F)F)cc1C(F)(F)F (stereo not drawn) [PF4, (Z)-4-(3-(3,4-Dibromophenyl)-1,4,4,4-tetrafluorobut-1-en-1-yl)-N-(2-(methyl(2,2,2-trifluoroethyl)amino]-2-oxoethyl)-2-(trifluoromethyl)benzamide] | 50 to 100 | 50 to 100 | A (80-100)
15 | C[C@@H](NC(=O)c1ccc(/C(F)=C/C(c2cc(Cl)c(Cl)c(Cl)c2)C(F)(F)F)c2ccccc12)C(=O)NCC(F)(F)F (stereo partly drawn) [PF1, N—((R)-1-Oxo-1-((2,2,2-trifluoroethyl)amino)propan-2-yl)-4-((Z)-1,4,4,4-tetrafluoro-3-(3,4,5-trichlorophenyl)but-1-en-1-yl)-1-naphthamide] | 50 to 100 | 50 to 100 | A (80-100)
16 | O=C(N[C@@H]1CON(CC(F)(F)F)C1=O)c1ccc(/C(F)=C/C(c2cc(Cl)c(C(F)F)c(Cl)c2)C(F)(F)F)cc1C(F)(F)F (stereo partly drawn) [F143, 4-((2)-3-(3,5-Dichloro-4-(difluoromethyl)phenyl)-1,4,4,4-tetrafluorobut-1-en-1-yl)-N—((R)-3-oxo-2-(2,2,2-trifluoroethyl)isoxazolidin-4-yl)-2-(trifluoromethyl)benzamide] | 50 to 100 | 50 to 100 | A (80-100)
17 | C[C@@H](NC(=O)c1ccc(/C(F)=C/C(c2cc(Cl)c(F)c(Cl)c2)C(F)(F)F)cc1C(F)(F)F)C(=O)NCC(F)(F)F (stereo partly drawn) [F36, 4-((Z)-3-(3,5-Dichloro-4-fluorophenyl)-1,4,4,4-tetrafluorobut-1-en-1-yl)-N—((R)-1-oxo-1-((2,2,2-trifluoroethyl)amino)propan-2-yl)-2-(trifluoromethyl)benzamide] | 50 to 100 | 50 to 100 | A (80-100)
18 | CN(CC(F)(F)F)C(=O)CNC(=O)c1ccc(/C(F)=C/C(c2cc(Cl)cc(Br)c2)C(F)(F)F)cc1C(F)(F)F (stereo not drawn) [F137, (Z)-4-(3-(3-Bromo-5-chlorophenyl)-1,4,4,4-tetrafluorobut-1-en-1-yl)-N-(2-(methyl(2,2,2-trifluoroethyl)amino)-2-oxoethyl)-2-(trifluoromethyl)benzamide] | 50 to 100 | 50 to 100 | B (More than 0-Less than 80)
19 | O=C(NC1(C(=O)NCC(F)(F)F)CC1)c1ccc(/C(F)=C/C(c2cc(Cl)c(F)c(Cl)c2)C(F)(F)F)cc1C(F)(F)F (stereo not drawn) [F37, (Z)-4-(3-(3,5-Dichloro-4-fluorophenyl)-1,4,4,4-tetrafluorobut-1-en-1-yl)-N-(1-((2,2,2-trifluoroethyl)carbamoyl)cyclopropyl)-2-(trifluoromethyl)benzamide] | 50 to 100 | 50 to 100 | A (80-100)

Reference: US10251394B2, “Molecules having pesticidal utility, and intermediates, compositions, and processes, related thereto” (Dow AgroSciences LLC, priority 2016, dated 2019)
